pIC50, pKi: −log10 of the molar value.
Columns and labels:
Carbonic anhydrase 12 = Carbonic anhydrase 12 (Homo sapiens, UniProt O43570); experiment: Inhibition of human CA12 incubated for 15 mins by stopped- flow CO2 hydrase assay method
Adenosine receptor A2b = biological target: T1, Adenosine receptor A2b (Homo sapiens, UniProt P29275); experiment: Antagonist activity at human A2B receptor expressed in CHO cell membrane assessed as reduction in NECA-[…] level by GloSensor CAMP assay; assay type: cell membranes
T1 sequence (P29275 whole entry): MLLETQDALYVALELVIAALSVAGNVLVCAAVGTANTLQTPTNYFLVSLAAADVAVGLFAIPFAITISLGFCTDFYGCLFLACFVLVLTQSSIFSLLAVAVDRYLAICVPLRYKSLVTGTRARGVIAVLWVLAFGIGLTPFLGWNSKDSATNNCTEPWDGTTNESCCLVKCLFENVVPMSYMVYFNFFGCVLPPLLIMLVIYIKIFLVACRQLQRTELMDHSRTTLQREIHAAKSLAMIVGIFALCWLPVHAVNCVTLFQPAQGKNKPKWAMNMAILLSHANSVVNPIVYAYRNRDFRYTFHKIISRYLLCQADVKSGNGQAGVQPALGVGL

Carbonic anhydrase 1 = Carbonic anhydrase 1 (Homo sapiens, UniProt P00915); experiment: Inhibition of human CA1 incubated for 15 mins by stopped- flow CO2 hydrase assay method
Chain of Carbonic anhydrase 1 (P00915 whole entry): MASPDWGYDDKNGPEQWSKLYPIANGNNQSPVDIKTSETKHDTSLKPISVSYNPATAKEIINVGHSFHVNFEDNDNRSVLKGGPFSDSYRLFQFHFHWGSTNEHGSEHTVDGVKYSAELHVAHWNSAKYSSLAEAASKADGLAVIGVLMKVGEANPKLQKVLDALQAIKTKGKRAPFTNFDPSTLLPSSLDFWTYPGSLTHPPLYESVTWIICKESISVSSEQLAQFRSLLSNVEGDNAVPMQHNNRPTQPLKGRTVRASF

Carbonic anhydrase 2 = Carbonic anhydrase 2 (Homo sapiens, UniProt P00918); experiment: Inhibition of human CA2 incubated for 15 mins by stopped- flow CO2 hydrase assay method
Carbonic anhydrase 9 = Carbonic anhydrase 9 (Homo sapiens, UniProt Q16790); experiment: Inhibition of human CA9 incubated for 15 mins by stopped- flow CO2 hydrase assay method
Adenosine receptor A3 = biological target: T2, Adenosine receptor A3 (Homo sapiens, UniProt P0DMS8); experiment: Displacement of [3H]-HEMADO from human A3 receptor stably expressed in CHO cell membranes by radioligand competitive binding assay; set-up: species or system Cell membrane
T2 sequence (P0DMS8 whole entry): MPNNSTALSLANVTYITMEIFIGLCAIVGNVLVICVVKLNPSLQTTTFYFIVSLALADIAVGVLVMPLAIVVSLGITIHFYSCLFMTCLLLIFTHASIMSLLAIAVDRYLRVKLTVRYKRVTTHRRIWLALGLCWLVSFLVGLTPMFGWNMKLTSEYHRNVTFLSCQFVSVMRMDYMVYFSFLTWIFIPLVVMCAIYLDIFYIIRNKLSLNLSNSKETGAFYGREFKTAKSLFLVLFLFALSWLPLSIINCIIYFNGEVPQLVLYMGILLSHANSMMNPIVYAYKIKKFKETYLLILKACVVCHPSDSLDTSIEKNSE

Adenosine receptor A1 = biological target: T3, Adenosine receptor A1 (Homo sapiens, UniProt P30542); experiment: Displacement of [3H]-CCPA from human A1 receptor stably expressed in CHO cell membranes by radioligand competitive binding assay; set-up: species or system Cell membrane
T3 sequence (P30542 whole entry): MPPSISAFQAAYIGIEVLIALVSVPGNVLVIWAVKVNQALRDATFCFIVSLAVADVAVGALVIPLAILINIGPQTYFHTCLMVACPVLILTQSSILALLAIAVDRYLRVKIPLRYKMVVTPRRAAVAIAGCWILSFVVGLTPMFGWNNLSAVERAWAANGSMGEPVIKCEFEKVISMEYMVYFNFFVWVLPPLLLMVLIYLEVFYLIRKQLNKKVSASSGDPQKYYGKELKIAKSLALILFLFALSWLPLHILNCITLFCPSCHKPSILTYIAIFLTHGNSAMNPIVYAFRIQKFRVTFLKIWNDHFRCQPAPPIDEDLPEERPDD

Adenosine receptor A2a = Adenosine receptor A2a (Homo sapiens, UniProt P29274); experiment: Displacement of [3H]-NECA from human A2A receptor stably expressed in CHO cell membranes by radioligand competitive binding assay; set-up: species or system Cell membrane
Chain of Adenosine receptor A2a (P29274 whole entry): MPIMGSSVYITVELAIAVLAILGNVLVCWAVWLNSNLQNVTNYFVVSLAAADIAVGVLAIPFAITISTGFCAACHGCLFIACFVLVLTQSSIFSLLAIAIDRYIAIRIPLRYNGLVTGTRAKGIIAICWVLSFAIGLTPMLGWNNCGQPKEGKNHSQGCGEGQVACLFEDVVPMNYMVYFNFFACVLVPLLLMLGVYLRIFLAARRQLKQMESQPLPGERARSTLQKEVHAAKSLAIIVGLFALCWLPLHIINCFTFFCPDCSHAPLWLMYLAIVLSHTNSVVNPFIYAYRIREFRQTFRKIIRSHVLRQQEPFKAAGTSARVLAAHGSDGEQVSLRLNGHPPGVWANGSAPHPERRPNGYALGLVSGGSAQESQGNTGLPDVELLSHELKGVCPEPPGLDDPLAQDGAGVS

Chain of Carbonic anhydrase 12 (O43570 whole entry): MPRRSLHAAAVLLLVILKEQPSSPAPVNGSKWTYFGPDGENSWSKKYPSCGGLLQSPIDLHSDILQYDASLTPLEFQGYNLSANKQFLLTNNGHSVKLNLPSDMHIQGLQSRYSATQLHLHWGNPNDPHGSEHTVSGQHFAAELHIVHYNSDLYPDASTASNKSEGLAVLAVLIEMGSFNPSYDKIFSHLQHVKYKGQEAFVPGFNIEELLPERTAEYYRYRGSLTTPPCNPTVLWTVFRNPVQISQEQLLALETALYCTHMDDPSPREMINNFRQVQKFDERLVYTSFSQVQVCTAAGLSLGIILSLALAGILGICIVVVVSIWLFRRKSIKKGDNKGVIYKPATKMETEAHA

SMILES: Nc1nc(-c2cccc(O)c2)cn2c(=O)n(-c3ccccc3)nc12
- pKi (Carbonic anhydrase 12): < 4.00
- pIC50 (Adenosine receptor A2b): < 4.52
- pKi (Carbonic anhydrase 1): < 4.00
- pKi (Carbonic anhydrase 2): 4.03
- pKi (Carbonic anhydrase 9): < 4.00

SMILES: Nc1nc(-c2ccc(O)cc2)cn2c(=O)n(-c3ccccc3)nc12
- pKi (Carbonic anhydrase 12): < 4.00
- pIC50 (Adenosine receptor A2b): < 4.52
- pKi (Carbonic anhydrase 1): < 4.00
- pKi (Carbonic anhydrase 2): < 4.00
- pKi (Carbonic anhydrase 9): < 4.00

SMILES: Nc1nc(-c2ccc(S(N)(=O)=O)cc2)cn2c(=O)n(-c3ccccc3)nc12
- pKi (Adenosine receptor A3): 4.83
- pKi (Carbonic anhydrase 12): 6.22
- pIC50 (Adenosine receptor A2b): < 4.52
- pKi (Carbonic anhydrase 1): 5.10
- pKi (Carbonic anhydrase 2): 6.15
- pKi (Adenosine receptor A1): 6.69
- pKi (Adenosine receptor A2a): 6.07
- pKi (Carbonic anhydrase 9): 5.05

SMILES: Nc1nc(-c2ccc(NC(=O)c3ccc(O)c(O)c3)cc2)cn2c(=O)n(-c3ccccc3)nc12
- pKi (Adenosine receptor A3): 5.90
- pKi (Carbonic anhydrase 12): < 4.00
- pIC50 (Adenosine receptor A2b): < 4.52
- pKi (Carbonic anhydrase 1): < 4.00
- pKi (Carbonic anhydrase 2): 4.50
- pKi (Adenosine receptor A1): 6.26
- pKi (Adenosine receptor A2a): 8.05
- pKi (Carbonic anhydrase 9): 4.35

SMILES: Nc1nc(-c2ccc(NC(=O)c3ccc(C(=O)NO)cc3)cc2)cn2c(=O)n(-c3ccccc3)nc12
- pKi (Adenosine receptor A3): 6.26
- pKi (Carbonic anhydrase 12): < 4.00
- pIC50 (Adenosine receptor A2b): < 4.52
- pKi (Carbonic anhydrase 1): < 4.00
- pKi (Carbonic anhydrase 2): 4.20
- pKi (Adenosine receptor A1): 6.40
- pKi (Adenosine receptor A2a): 7.44
- pKi (Carbonic anhydrase 9): < 4.00

SMILES: CN(C)c1nc(-c2ccc(S(N)(=O)=O)cc2)cn2c(=O)n(-c3ccccc3)nc12
- pKi (Adenosine receptor A3): 4.71
- pKi (Carbonic anhydrase 12): 6.45
- pIC50 (Adenosine receptor A2b): < 4.52
- pKi (Carbonic anhydrase 1): 5.68
- pKi (Carbonic anhydrase 2): 6.33
- pKi (Adenosine receptor A1): 6.36
- pKi (Adenosine receptor A2a): 5.41
- pKi (Carbonic anhydrase 9): 5.17

SMILES: Nc1nc(-c2ccc(NC(=O)c3ccc(C(=O)O)cc3)cc2)cn2c(=O)n(-c3ccccc3)nc12
- pKi (Adenosine receptor A3): < 4.52
- pKi (Carbonic anhydrase 12): < 4.00
- pIC50 (Adenosine receptor A2b): < 4.52
- pKi (Carbonic anhydrase 1): < 4.00
- pKi (Carbonic anhydrase 2): < 4.00
- pKi (Adenosine receptor A1): 5.63
- pKi (Adenosine receptor A2a): 7.09
- pKi (Carbonic anhydrase 9): < 4.00

SMILES: Nc1nc(-c2ccc(NC(=O)CCNC(=O)c3ccc(S(N)(=O)=O)cc3)cc2)cn2c(=O)n(-c3ccccc3)nc12
- pKi (Adenosine receptor A3): < 4.52
- pKi (Carbonic anhydrase 12): 7.57
- pIC50 (Adenosine receptor A2b): < 4.52
- pKi (Carbonic anhydrase 1): 7.29
- pKi (Carbonic anhydrase 2): 8.07
- pKi (Adenosine receptor A1): 5.97
- pKi (Carbonic anhydrase 9): 8.30

SMILES: Nc1nc(-c2ccc(NC(=O)c3cccc(S(N)(=O)=O)c3)cc2)cn2c(=O)n(-c3ccccc3)nc12
- pKi (Adenosine receptor A3): < 4.52
- pKi (Carbonic anhydrase 12): 6.52
- pIC50 (Adenosine receptor A2b): < 4.52
- pKi (Carbonic anhydrase 1): 5.64
- pKi (Carbonic anhydrase 2): 6.44
- pKi (Adenosine receptor A1): 5.92
- pKi (Adenosine receptor A2a): 7.87
- pKi (Carbonic anhydrase 9): 6.09

SMILES: Nc1nc(-c2ccc(NCc3ccc(S(N)(=O)=O)cc3)cc2)cn2c(=O)n(-c3ccccc3)nc12
- pKi (Adenosine receptor A3): < 4.52
- pKi (Carbonic anhydrase 12): 6.20
- pIC50 (Adenosine receptor A2b): < 4.52
- pKi (Carbonic anhydrase 1): 6.24
- pKi (Carbonic anhydrase 2): 6.05
- pKi (Adenosine receptor A1): 7.06
- pKi (Adenosine receptor A2a): 7.55
- pKi (Carbonic anhydrase 9): 5.22

SMILES: COc1ccc(C(=O)Nc2ccc(-c3cn4c(=O)n(-c5ccccc5)nc4c(N)n3)cc2)cc1
- pKi (Adenosine receptor A3): 6.55
- pKi (Carbonic anhydrase 12): < 4.00
- pIC50 (Adenosine receptor A2b): < 4.52
- pKi (Carbonic anhydrase 1): < 4.00
- pKi (Carbonic anhydrase 2): < 4.00
- pKi (Adenosine receptor A1): 6.38
- pKi (Adenosine receptor A2a): 9.15
- pKi (Carbonic anhydrase 9): < 4.00

SMILES: Nc1nc(-c2ccc(NCC(=O)c3ccc(S(N)(=O)=O)cc3)cc2)cn2c(=O)n(-c3ccccc3)nc12
- pKi (Adenosine receptor A3): 5.17
- pKi (Carbonic anhydrase 12): 7.59
- pIC50 (Adenosine receptor A2b): < 4.52
- pKi (Carbonic anhydrase 1): 6.23
- pKi (Carbonic anhydrase 2): 6.61
- pKi (Adenosine receptor A1): 6.88
- pKi (Adenosine receptor A2a): 7.59
- pKi (Carbonic anhydrase 9): 5.02

SMILES: Nc1nc(-c2ccccc2O)cn2c(=O)n(-c3ccccc3)nc12
- pKi (Carbonic anhydrase 12): < 4.00
- pIC50 (Adenosine receptor A2b): < 4.52
- pKi (Carbonic anhydrase 1): < 4.00
- pKi (Carbonic anhydrase 2): 4.72
- pKi (Carbonic anhydrase 9): < 4.00

SMILES: Nc1nc(-c2ccc(NC(=O)CCC(=O)O)cc2)cn2c(=O)n(-c3ccccc3)nc12
- pKi (Adenosine receptor A3): 5.16
- pKi (Carbonic anhydrase 12): < 4.00
- pIC50 (Adenosine receptor A2b): < 4.52
- pKi (Carbonic anhydrase 1): < 4.00
- pKi (Carbonic anhydrase 2): < 4.00
- pKi (Adenosine receptor A1): 5.64
- pKi (Adenosine receptor A2a): 6.24
- pKi (Carbonic anhydrase 9): < 4.00

SMILES: CCOC(=O)c1ccc(C(=O)Nc2ccc(-c3cn4c(=O)n(-c5ccccc5)nc4c(N)n3)cc2)cc1
- pKi (Adenosine receptor A3): < 4.52
- pKi (Carbonic anhydrase 12): < 4.00
- pIC50 (Adenosine receptor A2b): < 4.52
- pKi (Carbonic anhydrase 1): < 4.00
- pKi (Carbonic anhydrase 2): < 4.00
- pKi (Adenosine receptor A1): 5.13
- pKi (Adenosine receptor A2a): 5.87
- pKi (Carbonic anhydrase 9): < 4.00

SMILES: CCOC(=O)CNc1ccc(-c2cn3c(=O)n(-c4ccccc4)nc3c(N)n2)cc1
- pKi (Adenosine receptor A3): < 4.52
- pKi (Carbonic anhydrase 12): < 4.00
- pIC50 (Adenosine receptor A2b): < 4.52
- pKi (Carbonic anhydrase 1): < 4.00
- pKi (Carbonic anhydrase 2): < 4.00
- pKi (Adenosine receptor A1): 6.11
- pKi (Adenosine receptor A2a): 5.20
- pKi (Carbonic anhydrase 9): < 4.00

SMILES: COc1ccc(C(=O)Nc2ccc(-c3cn4c(=O)n(-c5ccccc5)nc4c(N)n3)cc2)cc1OC
- pKi (Adenosine receptor A3): < 4.52
- pKi (Carbonic anhydrase 12): < 4.00
- pIC50 (Adenosine receptor A2b): < 4.52
- pKi (Carbonic anhydrase 1): < 4.00
- pKi (Carbonic anhydrase 2): < 4.00
- pKi (Adenosine receptor A1): 7.01
- pKi (Adenosine receptor A2a): 7.69
- pKi (Carbonic anhydrase 9): < 4.00

SMILES: Nc1nc(-c2ccc(NC(=O)CCNCCc3ccc(S(N)(=O)=O)cc3)cc2)cn2c(=O)n(-c3ccccc3)nc12
- pKi (Adenosine receptor A3): 5.23
- pKi (Carbonic anhydrase 12): 9.58
- pIC50 (Adenosine receptor A2b): < 4.52
- pKi (Carbonic anhydrase 1): 5.06
- pKi (Carbonic anhydrase 2): 6.28
- pKi (Adenosine receptor A1): 5.99
- pKi (Adenosine receptor A2a): 7.97
- pKi (Carbonic anhydrase 9): 6.96

SMILES: Nc1nc(-c2ccc(NC(=O)c3ccc(S(N)(=O)=O)cc3)cc2)cn2c(=O)n(-c3ccccc3)nc12
- pKi (Adenosine receptor A3): < 4.52
- pKi (Carbonic anhydrase 12): 8.22
- pIC50 (Adenosine receptor A2b): < 4.52
- pKi (Carbonic anhydrase 1): 5.08
- pKi (Carbonic anhydrase 2): 7.34
- pKi (Adenosine receptor A1): 5.38
- pKi (Carbonic anhydrase 9): 6.33

SMILES: Nc1nc(-c2ccc(NC(=O)CCNCc3ccc(S(N)(=O)=O)cc3)cc2)cn2c(=O)n(-c3ccccc3)nc12
- pKi (Adenosine receptor A3): < 4.52
- pKi (Carbonic anhydrase 12): 7.38
- pIC50 (Adenosine receptor A2b): < 4.52
- pKi (Carbonic anhydrase 1): 5.05
- pKi (Carbonic anhydrase 2): 5.17
- pKi (Adenosine receptor A1): 6.08
- pKi (Adenosine receptor A2a): 7.02
- pKi (Carbonic anhydrase 9): 6.50

SMILES: Nc1nc(-c2ccc(NC(=O)c3ccc(O)cc3)cc2)cn2c(=O)n(-c3ccccc3)nc12
- pKi (Adenosine receptor A3): 5.97
- pKi (Carbonic anhydrase 12): 5.36
- pIC50 (Adenosine receptor A2b): < 4.52
- pKi (Carbonic anhydrase 1): < 4.00
- pKi (Carbonic anhydrase 2): 4.33
- pKi (Adenosine receptor A1): 6.71
- pKi (Adenosine receptor A2a): 7.39
- pKi (Carbonic anhydrase 9): < 4.00

From ChEMBL document CHEMBL4706508, “Discovery of first-in-class multi-target adenosine A receptor antagonists-carbonic anhydrase IX and XII inhibitors. 8-Amino-6-aryl-2-phenyl-1,2,4-triazolo [4,3-a]pyrazin-3-one derivatives as new potential antitumor agents” (Eur J Med Chem, 2020)
